From US20140371243A1, “MEDICAL USE OF A DPP-4 INHIBITOR” (Boehringer Ingelheim International GmbH, priority 2013, published 2014)

Experiments:
rat aortic SMC = assay: FBS-induced vascular smooth muscle cell proliferation, BrdU incorporation assay; assay type: cell-based; settings: in vitro, 10% FBS for 24 h, 12-h pre-treatment of linagliptin
Protocol: Rat aortic vascular SMC (VSMC) and mouse aortic VSMC were serum-deprived in Dulbecco's modified Eagle's medium containing 0.1% fetal bovine serum (FBS) for at least 24 h and subjected to mitogenic stimulation with 10% FBS for 24 h with or without 12-h pre-treatment of linagliptin at the indicated concentration BrdU Assay. To evaluate cell proliferation of rat aortic SMC, the bromodeoxyuridine (BrdU) incorporation assay was performed using the Cell Proliferation enzyme-linked immunosorbent assay (ELISA) kit (1647229, Roche Applied Science, Mannheim, Germany) as previously described.

[1] = Plasma levels of linagliptin in mice fed linagliptin in chow; assay type: in vivo, C57BL/6 mice; settings: 0.083 g/kg chow, corresponding to oral dose of 3 mg/kg/d
Excerpt: (§1) 6-week-old male C57BL/6 mice were purchased and were housed in a polycarbonate cage with a wooden chip mat on the floor; water was available ad libitum. C57BL/6 mice were divided into 2 groups: control (n=14) and linagliptin-treated (n=14). At age 7 weeks, control mice were fed normal chow (22.6% protein, 53.8% carbohydrate, 5.6% fat, 6.6% mineral and vitamin mixture, and 3.3% fiber; total: 356 kcal/100 g) with vehicle; linagliptin-treated mice were fed normal chow with linagliptin (0.083 g/kg chow, which results in mean plasma levels of 50-150 nM, corresponding to an oral dose of 3 mg/kg/d). The animal room was kept on a 12-h light/dark cycle at a constant temperature (22±1° C.) with relative humidity of 55±5% throughout the experimental period. Endothelial denudation injuries were induced in the femoral artery at age 8 weeks, followed by evaluation of neointimal formation at age 12 weeks.

active GLP-1 = assay: Serum active GLP-1 concentration (ELISA) in non-diabetic mice; assay type: in vivo, C57BL/6 mice; settings: linagliptin vs. control, 0.083 g/kg chow (3 mg/kg/d oral)
Excerpt: as §1

[2] = Body weight and blood glucose in non-diabetic mice; assay type: in vivo, C57BL/6 mice; settings: linagliptin vs. control, 0.083 g/kg chow (3 mg/kg/d oral)
Excerpt: as §1

[3] = tested on: femoral arteries after vascular injury; assay: Guidewire-induced femoral artery endothelial denudation injury, neointima formation (tissue analysis, elastic staining); assay type: in vivo, C57BL/6 mice; settings: non-diabetic mice, femoral artery guide wire injury, 4 weeks after injury, 0.083 g/kg chow (3 mg/kg/d oral)
Excerpt: as §1, with “weeks. Mouse femoral artery endothelial denudation injury was induced in C57BL/6 mice in the control and linagliptin groups at age 8 weeks, as previously described. […] Serial sections of 1.5 mm proximal region from the incision site for the wire insertion were evaluated by staining with Elastica van Gieson stain kit (4033-4037, Muto Pure Chemicals Co., Tokyo, Japan) to visualize the internal elastic lamina.” for “weeks.”

## CC#CCn1c(N2CCC[C@@H](N)C2)nc2c1c(=O)n(Cc1nc(C)c3ccccc3n1)c(=O)n2C [Linagliptin, 1-[(4-methyl-quinazolin-2-yl)methyl]-3-methyl-7-(2-butyn-1-yl)-8-(3-(R)-amino-piperidin-1-yl)-xanthine]
Rat aortic SMC
  FBS-induced vascular smooth muscle (SMC) proliferation (BrdU assay): reduces
[1]
  mean plasma levels: 50 to 150 nM
Active GLP-1
  serum active GLP-1 concentration (ELISA): increases
[2]
  blood glucose: does not change
  body weight: does not change
[3]
  neointima formation after vascular injury (intima area, media area, intima/media ratio): attenuates
